Experimental data published in US20180193209A1, “A POLYMER PRODUCT AND PREPARATION THEROF” (SINGAPORE HEALTH SERVICES PTE LTD., priority 2015, published 2018).

Tested on: Human dermal fibroblast cells
Assay: MTS-based cell viability assay on fiber mats
Details: 24 hours culture
Experimental: Human dermal fibroblast cells were cultured according to the procedures recited in Biomacromolecules, 2005, 6 (5), pp 2583-2589. Briefly, cells were cultured in DMEM medium (Gibco®) supplemented with 10% (v/v) fetal bovine serum, 50 U/ml penicillin and 50 μg/ml streptomycin in a humidified incubator at 37° C. and 5% CO2. All the cell culture reagents were obtained from Life Technologies Corporation (Singapore). For biocompatibility experiments, cells were seeded onto the coverslips precoated with scaffolds and placed at the bottom of the 12-well plates (Nunc®) at a density of 10×10^4 cells/well and allowed to grow for 24 hours before analysis. For the negative control well(s), nocodazole was added to a final concentration of 5 μg/mL in the culture medium.
Cell viability was determined using CellTier 96® Aqueous One solution cell proliferation assay kit according to the manufacturer's instruction (Promega Corporation, Madison, Wis.), and according to the procedures recited in Kim B J et al., Reinforced multifunctionalized nanofibrous scaffolds using mussel adhesive proteins, Angew Chem Int Ed Eng, 2012; 51:675-8. This assay evaluates mitochondrial function by measuring the ability of viable cells to reduce MTS ((3-(4,5-dimethylthiazol-2-yl)-5-(3-carboxymethoxyphenyl)-2-(4-sulfophenyl)-2H-tetrazolium)) into a quantifiable […] formazon product. […]

COC(=O)Nc1nc2ccc(C(=O)c3cccs3)cc2[nH]1 [nocodazole]
effect on cell viability (MTS): significant cell death
